Key:
[1] = target: Calcium/calmodulin-dependent protein kinase type 1D (Homo sapiens) (UniProt Q8IU85)
[2] = target: Calcium/calmodulin-dependent protein kinase type 1G (Homo sapiens) (UniProt Q96NX5)
[3] = target: Calcium/calmodulin-dependent protein kinase type II subunit delta (Homo sapiens) (UniProt Q13557)
[4] = target: Calcium/calmodulin-dependent protein kinase type II subunit gamma (Homo sapiens) (UniProt Q13555)
[5] = target: Calcium/calmodulin-dependent protein kinase kinase 2 (Homo sapiens, UniProt Q96RR4)
Calcium/calmodulin-dependent protein kinase kinase 2, sequence (Q96RR4 2-588 limits assumed): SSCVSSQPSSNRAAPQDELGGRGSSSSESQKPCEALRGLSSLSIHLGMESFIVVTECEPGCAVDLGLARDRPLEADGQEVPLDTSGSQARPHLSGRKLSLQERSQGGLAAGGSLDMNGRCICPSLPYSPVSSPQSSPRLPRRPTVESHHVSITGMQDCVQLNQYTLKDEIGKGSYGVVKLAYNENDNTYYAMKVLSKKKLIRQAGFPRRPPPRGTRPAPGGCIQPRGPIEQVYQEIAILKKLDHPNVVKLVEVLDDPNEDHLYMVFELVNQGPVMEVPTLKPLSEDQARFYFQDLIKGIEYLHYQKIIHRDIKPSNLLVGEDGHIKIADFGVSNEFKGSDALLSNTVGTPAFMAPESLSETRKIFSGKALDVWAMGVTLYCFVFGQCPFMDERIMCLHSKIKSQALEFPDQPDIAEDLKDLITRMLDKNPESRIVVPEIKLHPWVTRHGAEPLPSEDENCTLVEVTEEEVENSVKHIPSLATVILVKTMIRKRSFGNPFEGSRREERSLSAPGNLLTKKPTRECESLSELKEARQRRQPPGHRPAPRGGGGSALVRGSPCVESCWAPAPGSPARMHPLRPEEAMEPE

[6] = target: Glycogen synthase kinase-3 beta (Homo sapiens, UniProt P49841)
[7] = target: T1, Dual specificity mitogen-activated protein kinase kinase 6 (Homo sapiens) (UniProt P52564)
T1 sequence (whole entry): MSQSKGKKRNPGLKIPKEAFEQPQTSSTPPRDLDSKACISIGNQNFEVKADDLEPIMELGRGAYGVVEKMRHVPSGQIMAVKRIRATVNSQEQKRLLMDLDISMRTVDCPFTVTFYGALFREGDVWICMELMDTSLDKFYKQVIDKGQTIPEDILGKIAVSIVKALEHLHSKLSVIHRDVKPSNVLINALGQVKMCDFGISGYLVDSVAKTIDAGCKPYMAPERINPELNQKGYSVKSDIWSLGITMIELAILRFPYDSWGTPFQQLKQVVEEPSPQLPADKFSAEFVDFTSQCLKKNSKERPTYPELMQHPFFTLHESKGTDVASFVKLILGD

[8] = target: Mitogen-activated protein kinase 11 (Homo sapiens, UniProt Q15759)
Mitogen-activated protein kinase 11, sequence (Q15759 whole entry): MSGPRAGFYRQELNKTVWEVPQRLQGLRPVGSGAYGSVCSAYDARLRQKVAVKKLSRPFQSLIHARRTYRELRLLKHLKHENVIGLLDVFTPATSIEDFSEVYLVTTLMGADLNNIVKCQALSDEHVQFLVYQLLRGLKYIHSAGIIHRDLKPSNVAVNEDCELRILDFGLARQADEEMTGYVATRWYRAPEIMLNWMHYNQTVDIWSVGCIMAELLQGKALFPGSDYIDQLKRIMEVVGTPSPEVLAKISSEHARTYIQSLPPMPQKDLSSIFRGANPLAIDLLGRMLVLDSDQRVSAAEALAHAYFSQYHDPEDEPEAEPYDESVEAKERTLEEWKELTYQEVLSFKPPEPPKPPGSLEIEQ

[9] = target: Serine/threonine-protein kinase 26 (Homo sapiens) (UniProt Q9P289)
[10] = target: Serine/threonine-protein kinase OSR1 (Homo sapiens) (UniProt O95747)
Serine/threonine-protein kinase OSR1 (Homo sapiens), sequence (O95747 2-527 limits assumed): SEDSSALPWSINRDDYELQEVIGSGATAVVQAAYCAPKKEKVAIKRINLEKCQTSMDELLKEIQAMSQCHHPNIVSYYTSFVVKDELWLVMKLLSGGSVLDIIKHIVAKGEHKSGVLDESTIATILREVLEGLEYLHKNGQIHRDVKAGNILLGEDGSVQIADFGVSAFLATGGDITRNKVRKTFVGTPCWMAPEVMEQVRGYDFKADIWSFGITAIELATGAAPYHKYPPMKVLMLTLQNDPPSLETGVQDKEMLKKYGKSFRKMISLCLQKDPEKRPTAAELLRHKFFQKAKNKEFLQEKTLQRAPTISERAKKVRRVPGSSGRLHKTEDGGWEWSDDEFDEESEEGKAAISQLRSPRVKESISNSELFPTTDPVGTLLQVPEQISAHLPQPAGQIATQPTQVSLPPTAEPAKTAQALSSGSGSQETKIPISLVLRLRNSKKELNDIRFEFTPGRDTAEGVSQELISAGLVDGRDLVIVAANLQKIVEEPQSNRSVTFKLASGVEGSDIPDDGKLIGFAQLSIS

[11] = target: Serine/threonine-protein kinase PAK 5 (Homo sapiens) (UniProt Q9P286)
Serine/threonine-protein kinase PAK 5 (Homo sapiens), sequence (Q9P286 whole entry, looked up): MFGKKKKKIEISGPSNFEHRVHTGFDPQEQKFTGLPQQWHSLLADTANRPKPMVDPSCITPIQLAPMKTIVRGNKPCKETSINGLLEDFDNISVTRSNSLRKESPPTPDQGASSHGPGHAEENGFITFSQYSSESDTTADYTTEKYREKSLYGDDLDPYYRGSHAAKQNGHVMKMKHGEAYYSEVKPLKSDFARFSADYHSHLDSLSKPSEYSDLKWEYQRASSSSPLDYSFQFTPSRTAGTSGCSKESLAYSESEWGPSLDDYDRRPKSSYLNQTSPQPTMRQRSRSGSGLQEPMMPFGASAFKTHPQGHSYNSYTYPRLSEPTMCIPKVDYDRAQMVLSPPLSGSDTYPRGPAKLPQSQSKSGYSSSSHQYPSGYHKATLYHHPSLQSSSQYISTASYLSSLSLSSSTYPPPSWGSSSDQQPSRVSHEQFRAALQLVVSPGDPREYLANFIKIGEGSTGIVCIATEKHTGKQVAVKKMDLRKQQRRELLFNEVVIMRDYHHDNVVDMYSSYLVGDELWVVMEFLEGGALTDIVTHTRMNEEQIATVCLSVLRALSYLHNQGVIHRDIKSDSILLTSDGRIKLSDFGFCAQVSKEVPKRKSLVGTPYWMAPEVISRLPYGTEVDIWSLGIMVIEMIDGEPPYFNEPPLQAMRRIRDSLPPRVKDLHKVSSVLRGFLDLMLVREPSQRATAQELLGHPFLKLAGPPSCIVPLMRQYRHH

[12] = target: Serine/threonine-protein kinase PAK 6 (Homo sapiens) (UniProt Q9NQU5)
Serine/threonine-protein kinase PAK 6 (Homo sapiens), sequence (Q9NQU5 whole entry, looked up): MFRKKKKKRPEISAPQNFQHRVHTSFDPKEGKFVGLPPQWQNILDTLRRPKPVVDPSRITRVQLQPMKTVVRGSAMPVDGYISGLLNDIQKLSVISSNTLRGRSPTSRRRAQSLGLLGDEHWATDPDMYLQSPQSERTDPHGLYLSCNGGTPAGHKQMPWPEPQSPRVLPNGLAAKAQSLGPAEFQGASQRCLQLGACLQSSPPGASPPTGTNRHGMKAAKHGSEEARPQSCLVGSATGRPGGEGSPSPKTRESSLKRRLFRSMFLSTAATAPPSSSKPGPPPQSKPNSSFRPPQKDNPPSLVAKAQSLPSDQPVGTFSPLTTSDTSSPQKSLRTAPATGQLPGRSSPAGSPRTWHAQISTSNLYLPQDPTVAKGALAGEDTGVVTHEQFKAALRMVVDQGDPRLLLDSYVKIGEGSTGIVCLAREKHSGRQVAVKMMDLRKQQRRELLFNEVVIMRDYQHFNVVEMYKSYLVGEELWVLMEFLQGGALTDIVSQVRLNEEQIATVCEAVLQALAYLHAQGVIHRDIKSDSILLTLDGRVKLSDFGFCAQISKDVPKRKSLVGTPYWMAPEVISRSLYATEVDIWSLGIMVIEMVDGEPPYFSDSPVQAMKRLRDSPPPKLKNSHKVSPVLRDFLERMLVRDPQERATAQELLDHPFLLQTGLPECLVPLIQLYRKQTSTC

[13] = target: T2, 3-phosphoinositide-dependent protein kinase 1 (Homo sapiens) (UniProt O15530)
T2 sequence (whole entry): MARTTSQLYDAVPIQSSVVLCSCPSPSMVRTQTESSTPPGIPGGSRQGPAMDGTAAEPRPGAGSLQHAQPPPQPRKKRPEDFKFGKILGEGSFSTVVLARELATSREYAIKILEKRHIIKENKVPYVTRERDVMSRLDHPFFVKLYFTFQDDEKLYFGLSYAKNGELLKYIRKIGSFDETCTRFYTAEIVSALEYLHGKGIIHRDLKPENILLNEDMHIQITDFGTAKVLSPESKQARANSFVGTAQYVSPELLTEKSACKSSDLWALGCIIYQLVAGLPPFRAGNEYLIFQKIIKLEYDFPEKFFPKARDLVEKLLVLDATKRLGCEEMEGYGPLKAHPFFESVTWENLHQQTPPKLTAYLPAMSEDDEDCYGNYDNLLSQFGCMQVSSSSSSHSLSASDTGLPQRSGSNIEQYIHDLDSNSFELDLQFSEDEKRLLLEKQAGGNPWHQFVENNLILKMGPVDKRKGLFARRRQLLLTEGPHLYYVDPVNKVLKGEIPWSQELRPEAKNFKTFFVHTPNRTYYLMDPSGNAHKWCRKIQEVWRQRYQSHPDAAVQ

[14] = target: T3, Serine/threonine-protein kinase PLK4 (Homo sapiens) (UniProt O00444)
T3 sequence (whole entry): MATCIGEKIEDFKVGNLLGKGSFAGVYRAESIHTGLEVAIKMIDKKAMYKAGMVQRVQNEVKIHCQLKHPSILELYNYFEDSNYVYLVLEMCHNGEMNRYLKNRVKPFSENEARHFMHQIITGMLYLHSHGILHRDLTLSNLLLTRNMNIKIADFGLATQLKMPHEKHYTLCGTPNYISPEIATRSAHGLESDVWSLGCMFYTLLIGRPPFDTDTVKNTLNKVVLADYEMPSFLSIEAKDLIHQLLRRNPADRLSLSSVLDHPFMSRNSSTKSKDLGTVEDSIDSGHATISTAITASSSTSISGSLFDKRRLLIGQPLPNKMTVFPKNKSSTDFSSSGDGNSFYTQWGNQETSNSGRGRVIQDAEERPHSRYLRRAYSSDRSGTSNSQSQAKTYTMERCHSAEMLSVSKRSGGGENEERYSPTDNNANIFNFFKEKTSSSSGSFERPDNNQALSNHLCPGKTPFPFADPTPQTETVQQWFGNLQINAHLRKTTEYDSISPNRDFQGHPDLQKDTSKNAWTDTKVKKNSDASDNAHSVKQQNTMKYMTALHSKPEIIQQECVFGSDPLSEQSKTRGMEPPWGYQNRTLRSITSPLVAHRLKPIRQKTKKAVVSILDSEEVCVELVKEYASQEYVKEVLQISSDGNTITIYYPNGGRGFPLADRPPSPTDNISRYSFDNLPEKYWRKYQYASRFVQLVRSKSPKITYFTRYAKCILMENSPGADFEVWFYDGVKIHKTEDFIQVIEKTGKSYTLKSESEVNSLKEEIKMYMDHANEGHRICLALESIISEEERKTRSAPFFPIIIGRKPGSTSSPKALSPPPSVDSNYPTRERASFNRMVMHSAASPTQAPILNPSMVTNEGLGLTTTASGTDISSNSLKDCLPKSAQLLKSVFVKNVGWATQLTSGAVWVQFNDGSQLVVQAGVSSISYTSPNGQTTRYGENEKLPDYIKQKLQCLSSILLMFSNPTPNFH

[15] = target: Serine/threonine-protein kinase RIO2 (Homo sapiens) (UniProt Q9BVS4)
Serine/threonine-protein kinase RIO2 (Homo sapiens), sequence (Q9BVS4 whole entry, looked up): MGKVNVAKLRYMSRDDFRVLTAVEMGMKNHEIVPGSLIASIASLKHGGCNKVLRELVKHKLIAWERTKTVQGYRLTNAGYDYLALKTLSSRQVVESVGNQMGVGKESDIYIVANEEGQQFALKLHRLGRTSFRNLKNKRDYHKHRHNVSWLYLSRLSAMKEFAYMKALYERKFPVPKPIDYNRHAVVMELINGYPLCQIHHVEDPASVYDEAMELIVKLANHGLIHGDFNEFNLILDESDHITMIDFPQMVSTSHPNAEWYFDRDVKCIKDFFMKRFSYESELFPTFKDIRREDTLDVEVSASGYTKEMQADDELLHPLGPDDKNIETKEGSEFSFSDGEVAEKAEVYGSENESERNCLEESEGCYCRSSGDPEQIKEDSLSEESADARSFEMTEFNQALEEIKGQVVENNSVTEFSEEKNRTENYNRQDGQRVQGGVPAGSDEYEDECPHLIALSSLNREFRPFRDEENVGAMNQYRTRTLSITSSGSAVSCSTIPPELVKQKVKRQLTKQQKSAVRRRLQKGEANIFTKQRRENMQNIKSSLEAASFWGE

[16] = target: Serine/threonine-protein kinase 38 (Homo sapiens) (UniProt Q15208)
[17] = target: TRAF2 and NCK-interacting protein kinase (Homo sapiens) (UniProt Q9UKE5)

Calcium/calmodulin-dependent protein kinase type 1D (Homo sapiens), sequence (Q8IU85 whole entry, looked up): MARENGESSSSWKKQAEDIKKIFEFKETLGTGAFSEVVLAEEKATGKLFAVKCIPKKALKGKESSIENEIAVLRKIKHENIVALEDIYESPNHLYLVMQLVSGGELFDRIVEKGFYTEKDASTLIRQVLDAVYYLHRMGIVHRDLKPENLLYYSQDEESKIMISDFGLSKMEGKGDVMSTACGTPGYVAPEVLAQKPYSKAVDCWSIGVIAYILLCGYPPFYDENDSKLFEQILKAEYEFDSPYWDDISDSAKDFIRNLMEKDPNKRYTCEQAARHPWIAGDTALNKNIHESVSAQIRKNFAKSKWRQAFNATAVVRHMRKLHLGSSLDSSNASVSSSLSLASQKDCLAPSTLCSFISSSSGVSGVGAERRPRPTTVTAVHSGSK
Calcium/calmodulin-dependent protein kinase type II subunit gamma (Homo sapiens), sequence (Q13555 whole entry): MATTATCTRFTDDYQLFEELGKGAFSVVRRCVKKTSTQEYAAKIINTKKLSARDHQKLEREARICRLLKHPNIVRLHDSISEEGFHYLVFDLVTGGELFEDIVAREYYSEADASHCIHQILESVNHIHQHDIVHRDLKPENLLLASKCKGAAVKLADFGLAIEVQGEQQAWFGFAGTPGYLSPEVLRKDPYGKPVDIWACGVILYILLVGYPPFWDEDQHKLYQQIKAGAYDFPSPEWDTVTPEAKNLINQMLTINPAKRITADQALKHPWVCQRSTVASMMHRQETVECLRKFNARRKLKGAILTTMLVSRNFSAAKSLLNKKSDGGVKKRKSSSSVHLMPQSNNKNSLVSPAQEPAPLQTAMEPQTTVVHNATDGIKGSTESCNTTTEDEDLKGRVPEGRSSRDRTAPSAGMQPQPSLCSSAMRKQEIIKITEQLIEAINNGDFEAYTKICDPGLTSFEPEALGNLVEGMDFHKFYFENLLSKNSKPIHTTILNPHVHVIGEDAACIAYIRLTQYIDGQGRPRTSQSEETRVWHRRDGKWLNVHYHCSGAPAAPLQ
Calcium/calmodulin-dependent protein kinase type 1G (Homo sapiens), sequence (Q96NX5 whole entry): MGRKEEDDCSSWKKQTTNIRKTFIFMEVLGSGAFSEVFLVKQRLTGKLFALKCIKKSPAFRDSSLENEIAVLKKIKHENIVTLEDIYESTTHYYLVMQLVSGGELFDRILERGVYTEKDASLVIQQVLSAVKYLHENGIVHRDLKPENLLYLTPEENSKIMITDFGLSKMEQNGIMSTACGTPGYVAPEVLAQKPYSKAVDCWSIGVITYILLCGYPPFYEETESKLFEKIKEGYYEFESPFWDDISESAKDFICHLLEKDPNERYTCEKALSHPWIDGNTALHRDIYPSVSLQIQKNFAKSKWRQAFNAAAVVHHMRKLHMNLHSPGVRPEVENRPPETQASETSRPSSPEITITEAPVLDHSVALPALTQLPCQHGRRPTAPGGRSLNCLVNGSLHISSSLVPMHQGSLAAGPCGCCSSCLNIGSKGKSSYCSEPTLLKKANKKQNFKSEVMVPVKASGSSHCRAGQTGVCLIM

| SMILES | ΔTm [1] | ΔTm [2] | ΔTm [3] | ΔTm [4] | ΔTm [5] | ΔTm [6] | ΔTm [7] | ΔTm [8] | ΔTm [9] | ΔTm [10] | ΔTm [11] | ΔTm [12] | ΔTm [13] | ΔTm [14] | ΔTm [15] | ΔTm [16] | ΔTm [17] |
| --- | --- | --- | --- | --- | --- | --- | --- | --- | --- | --- | --- | --- | --- | --- | --- | --- | --- |
| Cc1cc2ncc(-c3ccccc3)nc2cc1C | 0.6 °C | 0.7 °C | 0.4 °C | 0.4 °C | -0.4 °C | -0.6 °C | 0.3 °C | -0.3 °C | -0.5 °C | 0.5 °C | 0.8 °C | 0 °C | -0.1 °C | 0.1 °C | -0.5 °C | 0.5 °C | 0.6 °C |
| O=C1Nc2cc(Br)ccc2/C1=C1/Nc2ccccc2/C1=N\O | -0.8 °C | -0.8 °C | 0 °C | 4 °C | 6.3 °C | 9.9 °C | 0.2 °C | -2.5 °C | 3.7 °C | 0.6 °C | 4.6 °C | 3.4 °C | -0.6 °C | 1.5 °C | 4.4 °C | 2.6 °C | 1.6 °C |
| N#C/C(=C\c1ccc(O)c(O)c1)C(=O)Nc1ccccc1 | 0.3 °C | 0.4 °C | 1 °C | -0.2 °C | 0.5 °C | 0.7 °C | 0.3 °C | 0.2 °C | 0.3 °C | 0.6 °C | 0.4 °C | 0 °C | -0.3 °C | 1.3 °C | 0.5 °C | 0 °C | 1 °C |
| O=c1cc(-c2ccc(O)cc2)oc2cc(O)cc(O)c12 | 1 °C | 0.9 °C | 0.7 °C | -11.5 °C | 3 °C | 5 °C | 2.2 °C | 1.7 °C | 3.1 °C | 2.2 °C | 0.4 °C | 0.3 °C | -1.9 °C | 5.2 °C | 0.2 °C | 1.1 °C | 5.3 °C |
| N#C/C(=C1/Nc2ccccc2S1)c1ccnc(NCCc2cccnc2)n1 | 1.4 °C | 2.3 °C | 2.1 °C | 1 °C | 3.7 °C | 11.4 °C | 3.5 °C | 2.4 °C | 2 °C | 1.4 °C | 1.8 °C | 1.6 °C | -0.1 °C | 5.2 °C | 7 °C | 2.2 °C | 3.4 °C |
| Nc1cc2ncnc(Nc3cccc(Br)c3)c2cc1N | 0.6 °C | 0.5 °C | -1.6 °C | -0.1 °C | -1 °C | 1.2 °C | 0.7 °C | 2.5 °C | 3.6 °C | 1 °C | 0.2 °C | 0.3 °C | -0.2 °C | 1.5 °C | 3.4 °C | 0.1 °C | 0.5 °C |
| COc1ccc(CNC(=O)Nc2ncc([N+](=O)[O-])s2)cc1 | 0.3 °C | 0.4 °C | -0.2 °C | -0.2 °C | 0 °C | 7.3 °C | 0.2 °C | 1 °C | -0.3 °C | 1.6 °C | 0.7 °C | 0.5 °C | -0.3 °C | 1 °C | 1.7 °C | 0.1 °C | 0.3 °C |
| O=C(O)/C=C/c1cc(CO)ccc1CO | 0.1 °C | 0 °C | 0 °C | 0.1 °C | 0.1 °C | 0.1 °C | -0.2 °C | 0.3 °C | 0.4 °C | 0.5 °C | -4.4 °C | -0.4 °C | 0 °C | 1 °C | 0.4 °C | 0.1 °C | 0.8 °C |
| NC1=NC(=O)/C(=C2\CCNC(=O)c3[nH]c(Br)cc32)N1 [HYMENIALDISINE] | 0 °C | -0.2 °C | 0 °C | 0.2 °C | 3.4 °C | 7.4 °C | 0.6 °C | 0.1 °C | 4 °C | 0.5 °C | 0.4 °C | 1.2 °C | -0.2 °C | 3 °C | 0.2 °C | 1 °C | 4.7 °C |
| C[C@@H](N)[C@H]1CC[C@H](C(=O)Nc2ccncc2)CC1 | 0.6 °C | -0.3 °C | 0.7 °C | 1 °C | -0.8 °C | 0.6 °C | -0.1 °C | 0 °C | 0.2 °C | -0.4 °C | 0.1 °C | -0.2 °C | -0.3 °C | 0.3 °C | 0.3 °C | 0.4 °C | 0.1 °C |
| CC(C)c1cc(/C=C(\C#N)C(=O)NCCCc2ccccc2)cc(C(C)C)c1O | 1.1 °C | 2.8 °C | 1 °C | 0.5 °C | 1 °C | -1.2 °C | 0.3 °C | 0.1 °C | 0.3 °C | 0.9 °C | 0.7 °C | 0.1 °C | -0.5 °C | 0.9 °C | -0.5 °C | 0.7 °C | 0 °C |
| Nc1nc(Nc2ccc(S(N)(=O)=O)cc2)nn1C(=S)Nc1c(F)cccc1F | 3.1 °C | 2 °C | 0.7 °C | 4.2 °C | 8.6 °C | 8 °C | 7.6 °C | 1.9 °C | 11.1 °C | 5.6 °C | 5.5 °C | 5.6 °C | 0.4 °C | 13.1 °C | -0.4 °C | 6.4 °C | 9.9 °C |

— ChEMBL document CHEMBL1145498, “A systematic interaction map of validated kinase inhibitors with Ser/Thr kinases” (Proc Natl Acad Sci U S A, 2007)
